Where a name gives a salt, the structure may show the parent alone.
What was measured:
[1] = test system: Human neuroblastoma SKN-SH cells, resistant to doxorubicin; test: Chemoresistance: cancer cell viability (MTT) in presence or absence of doxorubicin; assay type: cell-based; settings: compound 50 ug/mL, MTT
Description: A method for evaluating a compound's propensity to overcome cancer cell chemoresistance is described in “Caspase Inhibition Switches Doxorubicin-Induced Apoptosis To Senescence”, Abdelhadi Rebbaa, Xin Zheng, Pauline M Chou and Bernard L Mirkin, Oncogene (2003) 22, 2805-2811. Resistant human cancer cells to doxorubicin were selected by stepwise exposure to drug concentrations ranging from 10^−9 M-10^−6 M over 3 months. They were then subjected to treatment with the doxorubicin alone or in combination with hydroxylamine compounds 1-12, 16, 20, and 21 (Table 4). The cells were incubated with the drugs for 72 hours, and cell viability was measured by the MTT assay. Additionally, molecular pathways that might be associated with increased chemo-responsiveness with these compounds were investigated. p Cancer Cell Viability Data for certain hydroxylamines in the presence or absence of Doxorubicin is listed in Table 4.
A method for evaluating a compound's propensity to overcome cancer cell chemoresistance is described in “Caspase Inhibition Switches Doxorubicin-Induced Apoptosis To Senescence”, Abdelhadi Rebbaa, Xin Zheng, Pauline M Chou and Bernard L Mirkin, Oncogene (2003) 22, 2805-2811. Human neuroblastoma SKN-SH cells (ATCC Cat. No. HTB-11) were cultured in Dulbecco's Modified Eagles Medium (DMEM; Gibco, Grand Island, N.Y.) supplemented with 10% fetal bovine serum (FBS; Sigma-Aldrich, St. Louis, Mo.) at 37° C. in a 95% Air/5% CO2 atmosphere. Resistant human cancer cells to doxorubicin were selected by stepwise exposure to drug concentrations ranging from 10^−9M-10^−6M over 3 months. They were then subjected to treatment with the doxorubicin alone or in combination with hydroxylamine compounds. The cells were incubated with the drugs for 72 hours, and cell viability was measured by the MTT assay. This consists of adding 10 μl/well of MTT (5 mg/ml solution) and incubation for 4 h at 37° C. The precipitate formed is then solubilized by addition of 100 μl of HCL 0.5 N/Isopropanol and incubation for 15 hours at 37° C. The optical density is measured at 570 nm and cell survival is estimated by comparison to untreated cells. Each point represents 4 wells data represent average ± SE. Additionally, molecular pathways that might be associated with increased chemo-responsiveness with these compounds were investigated.
Cytotoxic activity of doxorubicin and hydroxylamine analogs were quantitatively determined by a colorimetric assay utilizing 3-(4,5-dimethyl-2-thiazolyl) 2,5-diphenyl tetrazolium bromide (MTT; Sigma-Aldrich, St. Louis, Mo.). Briefly, cells were seeded at 10^4 cells/well in 96-well plates and maintained in culture for 24 hours at 37° C. in DMEM supplemented with 10% FBS. Drugs were added to designated wells and cells were incubated for […], following which MTT (10 μL of 5 mg/ml solution) was added to each 100 μl well and incubated for 4 hours at 37° C. The cells were solubilized by incubation with 100 μl of HCl 0.5N in isopropanol for 15 hours at 37° C. The optical density of this solution was measured at 570 nm and the percentage of viable cells estimated by comparison with untreated control cells.

[2] = test system: Angiogenesis in CAM model; test: Neovascularization on the CAM (chick chorioallantoic membrane model of angiogenesis); assay type: in vivo, chicken; settings: 30 ug; unit assumed
Procedure: In vivo neovascularization was examined by the method previously described by Auerbach et al. (J. Dev. Biol. 41:391-394 (1974)). Ten-day old chicken embryos were purchased from Spafas, Inc. (Preston, Conn.) and were incubated at 37° C. with 55% relative humidity. In the dark, with the aid of a candling lamp, a small hole was punctured in the shell concealing the air sac with a hypodermic needle. A second hole was punctured in the shell on the broadside of the egg directly over an […] portion of the embryonic membrane, as observed during candling. An artificial air sac was created beneath the second hole by applying gentle vacuum to the first hole using a small rubber squeeze bulb. The vacuum caused the chorioallantoic membrane (CAM) to separate from the shell.
A window, approximately 1.0 cm^2, was cut in the shell over the dropped CAM with the use of a small crafts grinding wheel (Dremel, Division of Emerson Electric Company Racine, Wis.). The window allowed direct access to the underlying CAM.
A pro-angiogenic agent was added to induce new blood vessel branches on the CAM of 10-day old embryos. Filter disks of #1 filter paper (Whatman International, United Kingdom) were punched using a small puncher and were soaked in 3 mg/mL cortisone acetate (Sigma, St. Louis, Mo.) in a solution (95% ethanol and water). The disks were subsequently air dried under sterile conditions. The disks were then suspended in PBS (Phosphate Buffered Saline) and placed on growing CAMs. Filters treated with TP-H (TEMPOL-H) or TEMPOL and/or H2O2 or TP-H and/or bFGF or VEGF were placed on the first day of the 3-day incubation.
For inducing angiogenesis, sterile filter disks were saturated with bFGF (1 μg/ml) (Life Technologies, Gaithersburg, Md.) or other pro-angiogenesis factors and control disks were saturated with PBS without Calcium and Magnesium. […]
Using sterile forceps one filter/CAM was placed from the window. The window was sealed with Highland brand transparent tape.
After 24-48 hr, 10-25 ul of test agent was injected intravenously or added topically into the CAM membrane. Eight-Ten eggs/treatment group were used.
CAM tissue directly beneath filter disk was harvested from embryos treated 48 hours prior with compound or control. Tissues were washed three times with PBS. Sections were placed in a 35-mm petri dish (Nalge Nunc, Rochester, N.Y.) and examined under a SV6 stereomicroscope (Karl Zeiss, Thornwood, N.Y.) at 50× magnification.
CAM sections from Petri dish were examined using SV6 stereomicroscope (Karl Zeiss) at 50× magnification. Digital images of CAM sections from Petri dish were collected using a 3-CCD color video camera system (Toshiba America, New York, N.Y.). These images were analyzed using Image-Pro Plus software (Media Cybernetics, Silver Spring, Md.).
The number of branch points in blood vessels within the circular region superimposed to the area of a filter disk was counted for each section. After incubation at 37° C. with 55% relative humidity for 3 days, the CAM tissue directly beneath each filter disk was resected from control and treated CAM samples. Tissues were washed three times with PBS. Sections were placed in a 35-mm Petri dish (Nalge Nunc; Rochester, N.Y.) and were examined under a SV6 stereomicroscope (Karl Zeiss; Thornwood, N.Y.) at 50× magnification. Digital images of CAM sections adjacent to filters were collected using a 3-CCD color video camera system (Toshiba America; New York, N.Y.) and analyzed with the Image-Pro Plus software (Media Cybernetics; Silver Spring, Md.).
The number of vessel branch points contained in a circular region equal to the area of a filter disk was counted for each section. Percent inhibition data are expressed as the quotient of the experimental value minus the negative control value divided by the difference between the positive control value and the negative control value. […]

Row | SMILES | melting point | Mean OD (×10^−3), cancer cell viability ([1]; Dox. 10^−6 M present (+)) | Mean OD (×10^−3), cancer cell viability ([1]; Dox. absent (−)) | Percent inhibition of angiogenesis in CAM model at 30 ug [2] [%]
1 | CC1(C)COC(=O)C(C)(C)N1O.Cl [Compound 39, N-Hydroxyl-3,3,5,5-tetramethylmorpholin-2-one] | 145 °C (dec.) | 311.00 ×10^−3 | 1201.00 ×10^−3 | 96.9
2 | CC(C)c1nsnc1OCC1=CC(C)(C)N(O)C1(C)C (as salt: hydrochloride) [Compound 51] | 155.7 °C | – | – | –
3 | CC1(C)CC(NS(C)(=O)=O)CC(C)(C)N1O (as salt: salt) [Compound 10, 1-hydroxy-4-methanesulfonamido-2,2,6,6-tetramethylpiperidine] | 178.3 °C (dec.) | – | – | –
4 | CC1(C)C=C(CO)C(C)(C)N1O (as salt: chloride) [Compound 8] | 141.9 °C (dec.) | – | – | –
5 | CC1(C)CC(O)C(C)(C)N1O (stereo not shown) (as salt: salt) [Compound 7, 2,2,5,5-Tetramethyl-Pyrrolidine-1,3-diol] | 155.5 °C (dec.) | – | – | –
6 | CC1(C)CC(NC(=O)CCCCC2CCSS2)CC(C)(C)N1O (stereo not shown) (as salt: hydrochloride) [Compound 49, 5-(1,2-dithialan-3-yl)-N-(1-hydroxy-2,2,6,6-tetramethylpiperidin-4-yl)pentanamide] | 164.7 °C (dec.) | – | – | –
7 | CC1(C)CC(Oc2nc3ccc(F)cc3s2)CC(C)(C)N1O.Cl | 178 °C (dec.) | – | – | –
8 | CC1(C)CC(Oc2nsnc2C#N)CC(C)(C)N1O (as salt: hydrochloride) [Compound 45] | 179.2 °C (dec.) | – | – | –
9 | CC1(C)CC(Oc2nsnc2C(=O)O)CC(C)(C)N1O.Cl | 209.1 °C (dec.) | – | – | –
10 | CC(C)(C)OC(=O)c1nsnc1OC1CC(C)(C)N(O)C(C)(C)C1.Cl | 197 °C (dec.) | – | – | –
11 | COc1cc2c(cc1OC)CN(c1nsnc1OC1CC(C)(C)N(O)C(C)(C)C1)CC2.Cl | 166.9 °C (dec.) | – | – | –
12 | COc1ccc2nc(NC3CC(C)(C)N(O)C(C)(C)C3)sc2c1.Cl | 220 °C (dec.) | – | – | –
13 | CC1(C)CC(Oc2nc3ccccc3s2)CC(C)(C)N1O.Cl | 160 °C (dec.) | – | – | –
14 | CC1(C)CC(=CC(=O)N2CCN(c3ccccc3)CC2)CC(C)(C)N1O [Compound 56] | – | 308.75 ×10^−3 | 1153.00 ×10^−3 | 66.1
15 | CC1(C)C(CO)=C(c2ccc(F)cc2)C(C)(C)N1O.Cl [Compound 59, (4-(4-fluorophenyl)-1-hydroxy-2,5-dihydro-2,2,5,5-tetramethyl-1H-pyrrol-3-yl)methanol] | – | 352.00 ×10^−3 | 1105.00 ×10^−3 | 53

The next lines start with results.

Row | melting point | SMILES | Mean OD (×10^−3), cancer cell viability ([1]; Dox. 10^−6 M present (+)) | Mean OD (×10^−3), cancer cell viability ([1]; Dox. absent (−)) | Percent inhibition of angiogenesis in CAM model at 30 ug [2] [%]
16 | 214.1 °C | CC1(C)c2ccc(Br)cc2C(C)(C)N1O.Cl | – | – | –
17 | 218 °C (dec.) | CC1(C)CC(Oc2nsnc2N2CCSCC2)CC(C)(C)N1O.Cl [Compound 55, 4-(4-(1-hydroxy-2,2,6,6-tetramethylpiperidin-4-yloxy)-1,2,5-thiadiazol-3-yl)thiomorpholine] | 285.75 ×10^−3 | 1037.25 ×10^−3 | –
18 | 198.1 °C (dec.) | CC1(C)CC(Oc2nsnc2N2CCN(C(=O)c3ccco3)CC2)CC(C)(C)N1O.Cl | – | – | –
19 | 183 °C (dec.) | CC1(C)CC(Nc2nc3ccccc3s2)CC(C)(C)N1O.Cl | – | – | –
20 | 155.7 °C (dec.) | CC1(C)C=C(COc2ccccc2N2CCOCC2)C(C)(C)N1O.Cl | – | – | –
21 | 174.9 °C (dec.) | Cc1c(C)c2c(c(C)c1O)CCC(C)(C(=O)NC1CC(C)(C)N(O)C(C)(C)C1)O2.Cl (stereo not shown) | – | – | –
22 | 173.2 °C | Cc1nsnc1OCC1=CC(C)(C)N(O)C1(C)C (as salt: hydrochloride) [Compound 47, 3-((1-hydroxy-2,5-dihydro-2,2,5,5-tetramethyl-1H-pyrrol-3-yl)methoxy)-4-methyl-1,2,5-thiadiazole] | – | – | –
23 | 186 °C (dec.) | CC1(C)CC(C#N)CC(C)(C)N1O.Cl [Compound 12, 4-cyano-1-hydroxyl-2,2,6,6-tetramethylpiperidine] | 287.25 ×10^−3 | 539.25 ×10^−3 | –
